Assay results published in ChEMBL document CHEMBL5291721, “A preclinical secondary pharmacology resource illuminates target-adverse drug reaction associations of marketed drugs” (Nat Commun, 2023).

Assays:
Estrogen receptor = biological target: T1, Estrogen receptor (Homo sapiens, UniProt P03372)
T1 sequence (P03372 whole entry): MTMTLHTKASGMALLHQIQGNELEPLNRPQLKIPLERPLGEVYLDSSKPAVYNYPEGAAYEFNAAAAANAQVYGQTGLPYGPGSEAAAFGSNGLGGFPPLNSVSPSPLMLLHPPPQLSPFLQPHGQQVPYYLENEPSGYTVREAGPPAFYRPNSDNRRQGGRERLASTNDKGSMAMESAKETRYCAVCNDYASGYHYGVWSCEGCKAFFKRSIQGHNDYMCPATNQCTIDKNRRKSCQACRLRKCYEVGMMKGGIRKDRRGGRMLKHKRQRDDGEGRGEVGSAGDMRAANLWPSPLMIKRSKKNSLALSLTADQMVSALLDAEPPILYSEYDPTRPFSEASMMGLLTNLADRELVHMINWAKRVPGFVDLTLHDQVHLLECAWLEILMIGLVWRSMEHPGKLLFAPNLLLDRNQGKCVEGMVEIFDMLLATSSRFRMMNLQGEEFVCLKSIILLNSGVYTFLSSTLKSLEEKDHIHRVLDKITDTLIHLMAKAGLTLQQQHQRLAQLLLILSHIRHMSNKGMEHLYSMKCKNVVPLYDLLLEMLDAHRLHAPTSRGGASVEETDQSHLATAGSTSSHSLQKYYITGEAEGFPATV

[1] = biological target: T2, 5-hydroxytryptamine receptor 3A (Homo sapiens, UniProt P46098); type: functional
T2 sequence (P46098 whole entry): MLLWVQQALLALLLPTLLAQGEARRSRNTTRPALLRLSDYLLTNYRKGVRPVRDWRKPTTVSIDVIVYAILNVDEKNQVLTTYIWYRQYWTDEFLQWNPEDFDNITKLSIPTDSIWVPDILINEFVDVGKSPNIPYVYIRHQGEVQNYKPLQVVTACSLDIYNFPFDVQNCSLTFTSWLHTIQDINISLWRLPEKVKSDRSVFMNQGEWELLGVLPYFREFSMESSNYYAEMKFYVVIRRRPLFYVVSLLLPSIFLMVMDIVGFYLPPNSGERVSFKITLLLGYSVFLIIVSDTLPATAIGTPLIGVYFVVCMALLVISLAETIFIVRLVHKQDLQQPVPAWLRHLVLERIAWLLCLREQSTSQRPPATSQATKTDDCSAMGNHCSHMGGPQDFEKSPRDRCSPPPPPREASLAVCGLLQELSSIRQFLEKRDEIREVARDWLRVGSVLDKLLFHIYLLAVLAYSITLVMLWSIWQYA

Mu-type opioid receptor [2] = biological target: T3, Mu-type opioid receptor (Homo sapiens, UniProt P35372); assay: biochemical; type: functional
T3 sequence (P35372 whole entry): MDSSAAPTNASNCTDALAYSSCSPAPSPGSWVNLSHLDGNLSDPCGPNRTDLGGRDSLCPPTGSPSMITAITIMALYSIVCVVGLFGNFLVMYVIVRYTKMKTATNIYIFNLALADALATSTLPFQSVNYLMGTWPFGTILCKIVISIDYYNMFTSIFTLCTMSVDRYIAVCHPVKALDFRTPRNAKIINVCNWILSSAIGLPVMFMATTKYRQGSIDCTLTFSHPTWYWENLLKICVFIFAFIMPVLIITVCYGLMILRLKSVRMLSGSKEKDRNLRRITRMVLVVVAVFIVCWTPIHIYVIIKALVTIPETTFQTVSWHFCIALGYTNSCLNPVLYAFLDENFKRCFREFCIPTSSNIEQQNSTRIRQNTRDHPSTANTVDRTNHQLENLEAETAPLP

[3] = biological target: Glutamate receptor ionotropic, NMDA 1 (Rattus norvegicus, UniProt P35439)
Adenosine receptor A1 = biological target: T4, Adenosine receptor A1 (Homo sapiens, UniProt P30542)
T4 sequence (P30542 whole entry): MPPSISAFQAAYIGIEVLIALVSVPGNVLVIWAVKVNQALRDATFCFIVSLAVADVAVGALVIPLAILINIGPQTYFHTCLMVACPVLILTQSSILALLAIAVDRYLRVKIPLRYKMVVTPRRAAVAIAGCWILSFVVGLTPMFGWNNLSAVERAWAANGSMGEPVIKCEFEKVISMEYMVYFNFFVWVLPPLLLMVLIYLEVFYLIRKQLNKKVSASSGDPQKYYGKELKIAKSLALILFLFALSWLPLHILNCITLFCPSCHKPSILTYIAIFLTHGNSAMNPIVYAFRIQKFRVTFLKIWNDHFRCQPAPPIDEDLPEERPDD

[4] = biological target: Voltage-gated inwardly rectifying potassium channel KCNH2 (Homo sapiens, UniProt Q12809); type: functional; settings: read-out: AC50
Chain of Voltage-gated inwardly rectifying potassium channel KCNH2 (Q12809 whole entry): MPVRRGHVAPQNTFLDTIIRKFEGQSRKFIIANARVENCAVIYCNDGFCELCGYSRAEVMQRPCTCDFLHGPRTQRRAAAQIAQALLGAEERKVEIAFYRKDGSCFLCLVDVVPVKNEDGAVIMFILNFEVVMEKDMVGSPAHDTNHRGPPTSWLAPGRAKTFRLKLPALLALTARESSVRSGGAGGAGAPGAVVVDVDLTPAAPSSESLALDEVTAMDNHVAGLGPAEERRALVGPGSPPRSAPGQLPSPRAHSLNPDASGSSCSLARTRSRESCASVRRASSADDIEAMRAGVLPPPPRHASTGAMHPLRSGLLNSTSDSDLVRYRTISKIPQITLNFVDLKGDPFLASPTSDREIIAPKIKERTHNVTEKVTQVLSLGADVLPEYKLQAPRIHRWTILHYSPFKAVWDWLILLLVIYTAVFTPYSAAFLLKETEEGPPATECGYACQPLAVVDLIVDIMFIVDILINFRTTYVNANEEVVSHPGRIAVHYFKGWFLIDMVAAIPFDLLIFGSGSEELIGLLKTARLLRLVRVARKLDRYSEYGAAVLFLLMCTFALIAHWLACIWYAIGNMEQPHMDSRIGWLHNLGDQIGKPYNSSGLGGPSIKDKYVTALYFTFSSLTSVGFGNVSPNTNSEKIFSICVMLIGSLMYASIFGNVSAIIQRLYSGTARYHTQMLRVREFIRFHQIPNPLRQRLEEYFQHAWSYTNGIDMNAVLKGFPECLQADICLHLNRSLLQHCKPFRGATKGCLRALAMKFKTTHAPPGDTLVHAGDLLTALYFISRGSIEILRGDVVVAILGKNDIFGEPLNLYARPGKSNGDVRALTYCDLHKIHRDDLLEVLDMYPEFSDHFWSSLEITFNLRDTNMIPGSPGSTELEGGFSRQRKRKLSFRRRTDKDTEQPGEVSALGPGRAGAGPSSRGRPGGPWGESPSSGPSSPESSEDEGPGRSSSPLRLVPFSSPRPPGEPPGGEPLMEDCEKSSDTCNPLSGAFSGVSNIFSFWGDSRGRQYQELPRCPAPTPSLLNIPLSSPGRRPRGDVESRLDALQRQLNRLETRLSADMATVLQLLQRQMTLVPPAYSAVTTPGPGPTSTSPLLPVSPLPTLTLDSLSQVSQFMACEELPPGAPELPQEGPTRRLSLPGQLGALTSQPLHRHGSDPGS

[5] = biological target: T5, 5-hydroxytryptamine receptor 1A (Homo sapiens, UniProt P08908); type: functional, cell-based
T5 sequence (P08908 whole entry): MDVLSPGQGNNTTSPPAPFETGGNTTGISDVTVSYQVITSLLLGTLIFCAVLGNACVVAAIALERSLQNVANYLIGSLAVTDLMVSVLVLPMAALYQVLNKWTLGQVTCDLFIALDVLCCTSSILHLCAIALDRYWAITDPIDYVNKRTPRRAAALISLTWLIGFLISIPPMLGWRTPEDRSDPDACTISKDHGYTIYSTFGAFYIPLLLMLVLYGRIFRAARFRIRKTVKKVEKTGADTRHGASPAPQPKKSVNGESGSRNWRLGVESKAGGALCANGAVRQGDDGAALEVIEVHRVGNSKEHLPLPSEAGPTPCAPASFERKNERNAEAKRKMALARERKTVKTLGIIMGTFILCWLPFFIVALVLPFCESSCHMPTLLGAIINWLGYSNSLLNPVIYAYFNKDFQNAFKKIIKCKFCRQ

[6] = biological target: Neuronal acetylcholine receptor subunit alpha-4 (Homo sapiens, UniProt P43681)
Chain of Neuronal acetylcholine receptor subunit alpha-4 (P43681 whole entry): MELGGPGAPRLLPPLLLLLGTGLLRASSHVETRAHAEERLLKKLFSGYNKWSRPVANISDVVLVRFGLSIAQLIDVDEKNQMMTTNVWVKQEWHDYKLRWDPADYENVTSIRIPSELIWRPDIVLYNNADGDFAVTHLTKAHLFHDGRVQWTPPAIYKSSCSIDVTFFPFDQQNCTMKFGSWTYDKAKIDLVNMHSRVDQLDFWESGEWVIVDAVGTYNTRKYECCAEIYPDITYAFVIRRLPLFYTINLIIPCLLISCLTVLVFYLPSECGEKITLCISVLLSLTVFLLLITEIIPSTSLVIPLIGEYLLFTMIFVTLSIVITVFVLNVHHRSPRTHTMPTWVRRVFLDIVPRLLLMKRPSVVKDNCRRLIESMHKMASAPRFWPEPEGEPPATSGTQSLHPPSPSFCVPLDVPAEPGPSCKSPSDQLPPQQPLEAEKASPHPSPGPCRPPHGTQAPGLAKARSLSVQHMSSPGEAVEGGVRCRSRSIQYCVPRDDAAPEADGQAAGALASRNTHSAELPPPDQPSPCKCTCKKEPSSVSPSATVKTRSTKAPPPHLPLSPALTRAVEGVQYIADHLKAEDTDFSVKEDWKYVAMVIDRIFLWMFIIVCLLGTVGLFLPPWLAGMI

[7] = biological target: Beta-2 adrenergic receptor (Homo sapiens, UniProt P07550); type: functional, cell-based
Chain of Beta-2 adrenergic receptor (P07550 whole entry): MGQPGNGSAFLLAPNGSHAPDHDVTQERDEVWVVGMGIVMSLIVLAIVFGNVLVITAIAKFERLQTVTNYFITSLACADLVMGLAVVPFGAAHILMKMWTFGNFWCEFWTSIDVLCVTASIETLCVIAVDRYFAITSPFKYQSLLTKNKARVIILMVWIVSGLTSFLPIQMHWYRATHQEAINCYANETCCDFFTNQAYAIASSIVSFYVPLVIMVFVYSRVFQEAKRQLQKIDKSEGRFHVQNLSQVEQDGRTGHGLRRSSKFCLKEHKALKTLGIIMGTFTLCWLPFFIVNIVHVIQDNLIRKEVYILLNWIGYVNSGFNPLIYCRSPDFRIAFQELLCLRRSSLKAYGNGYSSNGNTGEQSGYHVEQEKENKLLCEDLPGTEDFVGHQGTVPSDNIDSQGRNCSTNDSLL

Mu-type opioid receptor [8] = biological target: T3, Mu-type opioid receptor
[9] = biological target: T6, Alpha-1A adrenergic receptor (Homo sapiens, UniProt P35348)
T6 sequence (P35348 whole entry): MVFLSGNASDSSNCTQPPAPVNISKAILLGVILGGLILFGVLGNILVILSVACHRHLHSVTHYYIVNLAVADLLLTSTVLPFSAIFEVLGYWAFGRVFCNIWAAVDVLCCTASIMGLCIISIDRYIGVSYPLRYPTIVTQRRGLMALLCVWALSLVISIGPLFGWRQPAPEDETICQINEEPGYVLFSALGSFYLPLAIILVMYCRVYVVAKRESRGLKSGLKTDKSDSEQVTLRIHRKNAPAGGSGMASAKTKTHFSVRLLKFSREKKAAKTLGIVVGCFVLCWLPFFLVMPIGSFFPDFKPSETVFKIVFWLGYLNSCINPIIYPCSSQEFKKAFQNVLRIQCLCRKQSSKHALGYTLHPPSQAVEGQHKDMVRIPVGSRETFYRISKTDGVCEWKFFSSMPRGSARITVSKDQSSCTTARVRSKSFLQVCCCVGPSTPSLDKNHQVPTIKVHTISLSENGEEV

Cannabinoid receptor 1 = Cannabinoid receptor 1 (Homo sapiens, UniProt P21554)
Chain of Cannabinoid receptor 1 (P21554 whole entry): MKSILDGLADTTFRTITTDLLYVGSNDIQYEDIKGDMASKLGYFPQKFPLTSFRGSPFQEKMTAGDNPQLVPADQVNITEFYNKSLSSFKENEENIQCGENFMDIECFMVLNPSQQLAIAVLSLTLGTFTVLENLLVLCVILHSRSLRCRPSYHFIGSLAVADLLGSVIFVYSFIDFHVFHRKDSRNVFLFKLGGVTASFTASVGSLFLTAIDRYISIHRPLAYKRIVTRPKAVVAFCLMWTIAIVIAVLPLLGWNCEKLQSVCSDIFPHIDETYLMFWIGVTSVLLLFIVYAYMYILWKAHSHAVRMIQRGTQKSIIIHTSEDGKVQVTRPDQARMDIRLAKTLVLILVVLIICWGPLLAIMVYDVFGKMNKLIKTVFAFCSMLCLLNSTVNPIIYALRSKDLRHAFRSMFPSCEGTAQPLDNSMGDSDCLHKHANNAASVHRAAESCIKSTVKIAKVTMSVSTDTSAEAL

Melanocortin receptor 4 = Melanocortin receptor 4 (Homo sapiens, UniProt P32245)
Chain of Melanocortin receptor 4 (P32245 whole entry): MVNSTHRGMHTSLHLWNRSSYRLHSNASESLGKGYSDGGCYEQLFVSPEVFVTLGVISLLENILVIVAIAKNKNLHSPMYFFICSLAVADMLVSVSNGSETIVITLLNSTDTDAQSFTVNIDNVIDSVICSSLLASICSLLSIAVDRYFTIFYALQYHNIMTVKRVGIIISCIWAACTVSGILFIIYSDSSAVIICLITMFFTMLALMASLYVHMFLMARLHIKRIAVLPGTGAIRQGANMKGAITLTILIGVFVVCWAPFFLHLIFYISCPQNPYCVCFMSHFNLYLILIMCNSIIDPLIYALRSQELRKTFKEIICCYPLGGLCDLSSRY
Note: assay procedure not described here.

Compound | AC50 (Estrogen receptor) [µM] | AC50 [1] [µM] | AC50 (Mu-type opioid receptor [2]) [µM] | AC50 [3] [µM] | AC50 (Adenosine receptor A1) [µM] | AC50 [4] [µM] | AC50 [5] [µM] | AC50 [6] [µM] | AC50 [7] [µM] | AC50 (Mu-type opioid receptor [8]) [µM] | AC50 [9] [µM] | AC50 (Cannabinoid receptor 1) [µM] | AC50 (Melanocortin receptor 4) [µM]
COc1c(C)c2c(c(O)c1C/C=C(\C)CCC(=O)OCCN1CCOCC1)C(=O)OC2 [MYCOPHENOLATE MOFETIL] | > 30 | > 30 | > 30 | > 30 | > 30 | 13 | > 30 | > 30 | > 30 | – | – | – | –
CC(Cc1ccccc1)NCCC(c1ccccc1)c1ccccc1 (stereo not drawn) [PRENYLAMINE] | > 30 | > 30 | – | > 10 | > 30 | 0.736 | > 30 | > 10 | > 30 | 1.8 | 0.877 | 7.95 | 6.4
CCC(C(=O)O)c1ccc(CC(C)C)cc1 (stereo not drawn) [BUTIBUFEN] | > 30 | > 30 | > 30 | > 30 | > 30 | > 30 | > 30 | > 30 | > 30 | – | – | – | –
CN[C@@H](C)[C@H](O)c1ccccc1 [EPHEDRINE] | > 30 | > 30 | – | > 10 | > 30 | > 30 | > 10 | > 10 | > 30 | > 30 | > 10 | > 10 | > 30
CC(C)c1c(C(=O)Nc2ccccc2)c(-c2ccccc2)c(-c2ccc(F)cc2)n1CC[C@@H](O)C[C@@H](O)CC(=O)O [ATORVASTATIN] | – | > 30 | – | > 10 | > 30 | – | > 10 | > 10 | > 30 | – | > 10 | > 10 | > 30
CCN1CCC[C@H]1CNC(=O)c1cc(S(N)(=O)=O)ccc1OC [LEVOSULPIRIDE] | – | > 30 | – | > 10 | > 30 | > 30 | > 30 | > 10 | > 30 | > 30 | 16 | > 10 | > 30
CCN(CC)CCOC(=O)c1ccc(N)cc1 [PROCAINE] | – | 22 | – | > 10 | > 30 | > 30 | > 30 | > 10 | > 30 | > 30 | > 10 | > 10 | > 30
CN1CCc2cccc3c2[C@H]1Cc1ccc(O)c(O)c1-3 [APOMORPHINE] | 1.47 | – | – | > 10 | > 30 | – | – | > 10 | > 30 | > 30 | > 10 | > 10 | > 30
Cc1cc(-c2ccccc2)nnc1NCCN1CCOCC1 [MINAPRINE] | > 30 | > 30 | – | > 10 | > 30 | 3.44 | > 10 | > 10 | > 30 | > 30 | > 10 | 9.5 | > 30
CN(C)C(=O)OC1N=C(c2ccccc2)c2cc(Cl)ccc2N(C)C1=O (stereo not drawn) [CAMAZEPAM] | > 30 | > 10 | – | > 10 | > 30 | > 30 | > 10 | > 10 | > 30 | > 10 | > 10 | > 10 | > 30
CN1CC(=O)N2[C@H](c3ccc4c(c3)OCO4)c3[nH]c4ccccc4c3C[C@@H]2C1=O | > 30 | > 30 | – | > 10 | > 30 | > 30 | > 10 | > 10 | > 30 | > 30 | > 10 | > 10 | > 30
C[C@]12CCC(=O)C=C1CC[C@@H]1[C@@H]2CC[C@@]2(C)[C@H]1CC[C@]2(C)O [METHYLTESTOSTERONE] | > 30 | > 30 | > 30 | > 30 | > 30 | > 30 | > 30 | > 30 | > 30 | – | – | – | –
NC(=O)C[S+]([O-])C(c1ccccc1)c1ccccc1 (stereo not drawn) [MODAFINIL] | > 30 | > 10 | – | > 10 | > 30 | > 30 | > 10 | > 10 | > 30 | > 10 | > 10 | > 10 | 24.1
C1=Cc2cccc(OCC3CNCCO3)c2C1 (stereo not drawn) [INDELOXAZINE] | > 30 | 25 | > 30 | > 30 | > 30 | > 30 | > 30 | > 30 | > 30 | – | – | – | –
O=C(O)Cc1cn(-c2ccccc2)nc1-c1ccc(Cl)cc1 [LONAZOLAC] | > 30 | > 30 | > 30 | > 30 | > 30 | > 30 | > 30 | > 30 | > 30 | – | – | – | –
C#C[C@]1(O)CC[C@H]2[C@@H]3CCC4=CCCC[C@@H]4[C@H]3CC[C@@]21C [LYNESTRENOL] | > 30 | > 30 | > 30 | > 30 | > 30 | > 30 | > 30 | > 30 | > 30 | – | – | – | –
NC(CO)C(=O)NNCc1ccc(O)c(O)c1O (stereo not drawn) [BENSERAZIDE] | 1.72 | > 30 | – | > 10 | > 30 | > 30 | > 10 | > 10 | > 30 | > 10 | > 10 | > 10 | > 30
